Columns and labels:
[1] = UV spectra of the chromophores, maximum absorption wavelength; assay type: physicochemical; details: UV spectrum of chromophore 78, carboxylate function protected in ester form
Protocol: Several compounds according to the invention were prepared and their photophysical properties, in particular the wavelengths corresponding to their maximum absorption peaks (λmax), were determined. The structures of these compounds and the results obtained are described in table 2.
The chromophores (similar to compound 78, carboxylate function protected in ester form) were synthesized according to the protocol described in scheme 13, using one of the two approaches “A” or “B” as described in this scheme (including that for the chromophores comprising naphthyl, thiolanyl, imidazolyl and anthracenyl rings or heterocycles). For each chromophore, the UV spectra were recorded and the maximum absorption wavelengths (λmax) were determined and reported in table 2.

[2] = Photophysical properties of symmetrical europium TACN complexes 81; assay type: physicochemical; details: symmetrical europium TACN complex 81 made of three identical chromophores
Protocol: For certain chromophores, europium complexes according to the invention in which the three chromophores are identical (symmetrical complexes) were prepared using the protocol described in scheme 14, with a TACN macrocycle (the synthetic yields for the intermediate compounds 79, 80 and 81 of scheme 14 were reported in table 2). The photophysical properties of these europium complexes were determined and also reported in this table.

## COC(=O)c1cc(C#Cc2cncn2C)cc(CO)n1
[1]
  Chromophore 78 λmax (nm): 315 nm
[2]
  Complex 81 Quantic yield (%): 54%
  Complex 81 λmax (nm): 333 nm

## COC(=O)c1cc(C#Cc2ccccc2)cc(CO)n1 [reference compound]
[1]
  Chromophore 78 λmax (nm): 291 nm

## COC(=O)c1cc(C#Cc2cccc3ccccc23)cc(CO)n1
[1]
  Chromophore 78 λmax (nm): 329 nm

## COC(=O)c1cc(C#Cc2ccc(OC)cc2OC)cc(CO)n1
[1]
  Chromophore 78 λmax (nm): 319 nm

## COC(=O)c1cc(C#Cc2ccc(NC(=O)c3ccccc3)cc2)cc(CO)n1
[1]
  Chromophore 78 λmax (nm): 323 nm

## COC(=O)c1cc(C#Cc2ccc(OCC(=O)OC(C)(C)C)cc2)cc(CO)n1
[1]
  Chromophore 78 λmax (nm): 318 nm

## COC(=O)c1cc(C#Cc2c3ccccc3cc3ccccc23)cc(CO)n1
[1]
  Chromophore 78 λmax (nm): 326 nm

## COC(=O)c1cc(C#Cc2ccc3cc(OC)ccc3c2)cc(CO)n1
[1]
  Chromophore 78 λmax (nm): 335 nm

## COC(=O)c1cc(C#Cc2ccccc2OC)cc(CO)n1
[1]
  Chromophore 78 λmax (nm): 323 nm
[2]
  Complex 81 Quantic yield (%): 46%
  Complex 81 λmax (nm): 336 nm

## COC(=O)c1cc(C#Cc2ccc(SC)cc2)cc(CO)n1
[1]
  Chromophore 78 λmax (nm): 332 nm

## COC(=O)c1cc(C#Cc2ccc(NC(C)=O)cc2C)cc(CO)n1
[1]
  Chromophore 78 λmax (nm): 322 nm

## COC(=O)c1cc(C#Cc2ccc(Oc3ccccc3)cc2)cc(CO)n1
[1]
  Chromophore 78 λmax (nm): 315 nm

## COC(=O)c1cc(C#Cc2ccc(-c3ccccc3)cc2)cc(CO)n1
[1]
  Chromophore 78 λmax (nm): 318 nm

## COC(=O)c1cc(C#Cc2ccc(OC)cc2)cc(CO)n1
[1]
  Chromophore 78 λmax (nm): 320 nm
[2]
  Complex 81 Quantic yield (%): 52%
  Complex 81 λmax (nm): 333 nm

## COC(=O)c1cc(C#Cc2ccc(OC)cc2C)cc(CO)n1
[1]
  Chromophore 78 λmax (nm): 326 nm
[2]
  Complex 81 Quantic yield (%): 76%
  Complex 81 λmax (nm): 343 nm

## COC(=O)c1cc(C#Cc2ccc(O)cc2)cc(CO)n1
[1]
  Chromophore 78 λmax (nm): 324 nm

## COC(=O)c1cc(C#Cc2ccc(NC(=O)c3cc(OC)c(OC)c(OC)c3)cc2)cc(CO)n1
[1]
  Chromophore 78 λmax (nm): 324 nm

## COC(=O)c1cc(C#Cc2cc(OC)c(C)c(OC)c2)cc(CO)n1
[1]
  Chromophore 78 λmax (nm): 319 nm
[2]
  Complex 81 Quantic yield (%): 11%
  Complex 81 λmax (nm): 336 nm

## COC(=O)c1cc(C#Cc2ccsc2)cc(CO)n1
[1]
  Chromophore 78 λmax (nm): 326 nm
[2]
  Complex 81 Quantic yield (%): 52%
  Complex 81 λmax (nm): 323 nm

## COC(=O)c1cc(C#Cc2ccc(NC(=O)OC(C)(C)C)cc2)cc(CO)n1
[1]
  Chromophore 78 λmax (nm): 326 nm
